Usually IC50 stands for the concentration that inhibits the measured activity by half.

Consider two molecules from patent publication EP0934259B1, “BETA-SULFONAMIDO HYDROXAMIC ACIDS AS MATRIX METALLOPROTEINASE AND TACE INHIBITORS” (American Cyanamid Company, priority 1996, dated 1998).

Each structure is given as a SMILES string.

What all share (assay type): biochemical
One test concerns the target T1, TACE (Homo sapiens, UniProt P78536).
T1 construct: purchased Immunex
As to the kind of experiment: TACE inhibition (fluorescent peptidyl substrate assay). The protocol: Using 96-well black microtiter plates, each well receives a solution composed of 10 µL TACE (Immunex, final concentration 1µg/mL), 70µL Tris buffer, pH 7.4 containing 10% glycerol (final concentration 10 mM), and 10 µL of test compound solution in DMSO (final concentration 1µM, DMSO concentration <1%) and incubated for 10 minutes at room temperature. The reaction is initiated by addition of a fluorescent peptidyl substrate (final concentration 100 µM) to each well and then shaking on a shaker for 5 sec.
The reaction is read (excitation 340 nm, emission 420 nm) for 10 min. and the increase in fluorescence over time is plotted as a linear line. The slope of the line is calculated and represents the reaction rate.
The linearity of the reaction rate is confirmed (r^2 >0.85). The mean (x±sem) of the control rate is calculated and compared for statistical significance (p<0.05) with drug-treated rates using Dunnett's multiple comparison test. Dose-response relationships can be generate using multiple doses of drug and IC50 values with 95% CI are estimated using linear regression.

The target of another test is T2, MMP-1 (Homo sapiens, UniProt P03956).
T2 sequence (P03956 100-469): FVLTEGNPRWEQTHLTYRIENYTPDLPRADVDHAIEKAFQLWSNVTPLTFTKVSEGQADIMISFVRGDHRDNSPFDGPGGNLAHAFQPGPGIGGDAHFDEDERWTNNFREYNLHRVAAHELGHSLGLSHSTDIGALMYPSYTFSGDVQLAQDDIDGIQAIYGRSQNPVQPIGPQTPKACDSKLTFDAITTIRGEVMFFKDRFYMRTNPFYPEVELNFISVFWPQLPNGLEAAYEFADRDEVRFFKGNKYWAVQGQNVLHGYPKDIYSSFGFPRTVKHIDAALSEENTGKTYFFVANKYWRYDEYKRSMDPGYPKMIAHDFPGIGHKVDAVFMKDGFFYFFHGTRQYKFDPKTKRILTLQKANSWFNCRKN
The test can be described thus: MMP-1 inhibition (thiopeptide or fluorescent peptide substrate assay). On the procedure: (§1) These assays are based on the cleavage of a thiopeptide substrates such as Ac-Pro-Leu-Gly(2-mercapto-4-methyl-pentanoyl)-Leu-Gly-OEt by the matrix metalloproteinases MMP-1, MMP-13 (collagenases) or MMP-9 (gelatinase), which results in the release of a substrate product that reacts colorimetrically with DTNB (5,5'-dithiobis(2-nitro-benzoic acid)). The enzyme activity is measured by the rate of the color increase. The thiopeptide substrate is made up fresh as a 20 mM stock in 100% DMSO and the DTNB is dissolved in 100% DMSO as a 100 mM stock and stored in the dark at room temperature. […] The assay buffer, enzyme, vehicle or inhibitor, and DTNB/substrate are added in this order to a 96 well plate (total reaction volume of 200 µl) and the increase in color is monitored spectrophotometrically for 5 minutes at 405 nm on a plate reader and the increase in color over time is plotted as a linear line.
(§2) Alternatively, a fluorescent peptide substrate is used. […] Upon cleavage of the substrate by an MMP, the fluorescence that is generated is quantitated on the fluorescence plate reader. […] The reaction is read (excitation 340 nm, emission 444 nm) for 10 min, and the increase in fluorescence over time is plotted as a linear line.
(§3) For either the thiopeptide or fluorescent peptide assays, the slope of the line is calculated and represents the reaction rate. […]

In the next test the target is MMP-9 (Homo sapiens, UniProt P14780). As to the kind of experiment: MMP-9 inhibition (thiopeptide or fluorescent peptide substrate assay). The protocol: as §1, §2, §3
Chain of MMP-9 (P14780 94-707): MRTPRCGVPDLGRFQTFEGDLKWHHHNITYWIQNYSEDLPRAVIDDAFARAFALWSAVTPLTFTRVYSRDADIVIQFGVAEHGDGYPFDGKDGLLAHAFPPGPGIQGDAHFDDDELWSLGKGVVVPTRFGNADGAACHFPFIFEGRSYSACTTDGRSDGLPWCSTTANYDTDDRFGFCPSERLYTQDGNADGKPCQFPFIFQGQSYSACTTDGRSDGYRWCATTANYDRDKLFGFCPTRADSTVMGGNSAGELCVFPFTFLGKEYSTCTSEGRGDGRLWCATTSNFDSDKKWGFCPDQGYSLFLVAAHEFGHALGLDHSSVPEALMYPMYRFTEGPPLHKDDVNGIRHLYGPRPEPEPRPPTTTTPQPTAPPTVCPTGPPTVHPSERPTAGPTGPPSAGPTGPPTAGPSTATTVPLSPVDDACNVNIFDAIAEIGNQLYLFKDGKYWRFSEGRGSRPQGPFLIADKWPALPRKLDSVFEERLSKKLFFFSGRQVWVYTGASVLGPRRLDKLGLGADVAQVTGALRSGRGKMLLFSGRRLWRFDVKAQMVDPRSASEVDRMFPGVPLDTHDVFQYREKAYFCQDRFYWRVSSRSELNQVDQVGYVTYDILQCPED

T1 sequence (P78536 215-824): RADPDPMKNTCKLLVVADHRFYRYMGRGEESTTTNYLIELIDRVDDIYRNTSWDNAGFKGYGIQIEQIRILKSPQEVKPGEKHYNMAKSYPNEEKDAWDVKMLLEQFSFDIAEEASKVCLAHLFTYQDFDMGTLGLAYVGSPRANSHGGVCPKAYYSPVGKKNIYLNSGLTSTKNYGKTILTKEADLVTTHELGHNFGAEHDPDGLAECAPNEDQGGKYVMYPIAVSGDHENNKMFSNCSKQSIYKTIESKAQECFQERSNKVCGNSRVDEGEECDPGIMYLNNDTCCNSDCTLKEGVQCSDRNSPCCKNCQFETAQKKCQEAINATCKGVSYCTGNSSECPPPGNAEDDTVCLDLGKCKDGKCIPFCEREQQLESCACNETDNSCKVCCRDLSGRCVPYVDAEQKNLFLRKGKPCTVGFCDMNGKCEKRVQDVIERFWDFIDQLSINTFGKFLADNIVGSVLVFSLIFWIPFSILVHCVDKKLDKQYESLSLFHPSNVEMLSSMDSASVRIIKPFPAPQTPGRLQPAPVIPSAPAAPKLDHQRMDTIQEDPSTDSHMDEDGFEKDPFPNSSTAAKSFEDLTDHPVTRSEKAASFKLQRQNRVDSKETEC

In the case of `COc1ccc(S(=O)(=O)N(Cc2ccccc2)[C@@H]2CCCC[C@H]2C(=O)NO)cc1` (relative stereo) [Example 9, (trans)-2-[Benzyl-(4-methoxy-benzenesulfonyl)-amino]-cyclohexanecarboxylic acid hydroxyamide], the IC50 on TACE amounted to 1610 nM; on MMP-1 it was 176 nM; on MMP-9, 181 nM.
With `COc1ccc(S(=O)(=O)N(Cc2ccccc2)[C@H]2CCCC[C@H]2C(=O)NO)cc1` (relative stereo) [Example 10, (cis)-2-[Benzyl-(4-methoxy-benzenesulfonyl)-amino]-cyclohexanecarboxylic acid hydroxyamide], the inhibition at 1 µM on TACE (read-out: TACE % inhibition at 1 µM concentration) turned out to be 24%. Moreover, the IC50 against MMP-1 worked out at 616 nM; against MMP-9, 275 nM.
